Reference: patent US20240349723A1 (priority 2023, published 2024)
Entries after “also recorded” stand apart in the source; their conditions may differ. Read-outs that look alike come from different tables or passages of the source. Where a SMILES comes first, the peptide text is derived from it. Where no end group is shown, it is not given here.

What was measured:
CLas = assay type: in vivo, Candidatus Liberibacter asiaticus
Diaphorina citri = assay type: in vivo; details: for live adult psyllids collected from the ten leaves: after 21 day assay, 10 nymphs per excised leaf, peptides 1 mg/mL, PMB 0.5 mg/mL; for Nymph mortality of D. citri: dead psyllids counted daily, 21 days, FIG. 9
[1] = test system: Liberibacter crescens strain BT-1
[2] = test system: 'Candidatus Liberibacter asiaticus' (CLas); assay type: in vivo; details: excised CLas-infected citrus leaves, 1 mg/ml, seven-day incubation, FIG. 5
[3] = adults developed on treated CLas-infected leaves, 21 days, FIG. 7

Question: Which “development of psyllid with more than 100 CLas cells per insect (high titer)” value (CLas; in vivo) does the source give for “RGCKRDKDCPQFRGVNIRCR (listed as Medicago truncatula) [SEQ ID NO: 9]” here?
Answer: completely blocking the development of psyllid with more than 100 CLas cells; also recorded: No highly infected adults develop

Question: What about the “number of infective Diaphorina citri adults that develop on treated leaves” value (shortened to “number”) (CLas; in vivo) of the same compound?
Answer: reduces the number of infective Diaphorina citri adults

Question: What about the “live adult psyllids collected from the ten leaves” value (Diaphorina citri) of the same compound?
Answer: 80

Question: Which “number” value (CLas; leaf delivery, FIG. 7) does the source give for “LYCNVGSHMECVKHQCKCIK (listed as Medicago truncatula) [SEQ ID NO: 11]” here?
Answer: reduces the number of infective Diaphorina citri adults

Question: What about the “Nymph mortality of D. citri” value (Diaphorina citri) of the same compound?
Answer: Nymph mortality observed

Question: How did the “Percent growth rate inhibition L. crescens” value ([1]; L. crescens strain BT-1, BM7 medium, final peptide 1 or 0.1 mg/ml, O.D. 600 nm over seven days) turn out when LRFRSVFHIFASVLAVAKKH [compound 6] was run?
Answer: 66.6%

Question: Which results are given for “polymyxin B sulfate [PMB, reference compound]”?
Answer: CLas 16S transcript-to-gene ratio (CLas rRNA : CLas rDNA), CLas activity [2]: greater declines in detectable CLas activity; development of psyllid with more than 100 CLas cells per insect (high titer) (CLas; [3]): prevented the development of high titer psyllid; CLas titer in the excised leaves (CLas; excised leaf acquisition assay, FIG. 6A, differences not statistically significant): reduced CLas titer in the excised leaves; live adult psyllids collected from the ten leaves (Diaphorina citri): 87; performance in the bacterial growth assays ([1]; positive growth inhibition control, 0.5 mg/ml): excellent performance as an antimicrobial peptide

Question: How did the “development of psyllid with more than 100 CLas cells per insect (high titer)” value (CLas; [3]) turn out when “VKCVLPRIARCIKYRCQCRN (listed as Medicago truncatula) [SEQ ID NO: 10]” was run?
Answer: completely blocking the development of psyllid with more than 100 CLas cells; also recorded: No highly infected adults develop

Question: And the “number” value (CLas; leaf delivery, FIG. 7)?
Answer: reduces the number of infective Diaphorina citri adults

Question: And the “live adult psyllids collected from the ten leaves” value (Diaphorina citri)?
Answer: 74

Question: With `CC[C@H](C)[C@H](NC(=O)[C@H](CC(N)=O)NC(=O)[C@@H](NC(=O)CNC(=O)[C@H](CCCNC(=N)N)NC(=O)[C@H](Cc1ccccc1)NC(=O)[C@H](CCC(N)=O)NC(=O)[C@@H]1CCCN1C(=O)[C@H](CS)NC(=O)[C@H](CC(=O)O)NC(=O)[C@H](CCCCN)NC(=O)[C@H](CC(=O)O)NC(=O)[C@H](CCCNC(=N)N)NC(=O)[C@H](CCCCN)NC(=O)[C@H](CS)NC(=O)CNC(=O)[C@@H](N)CCCNC(=N)N)C(C)C)C(=O)N[C@@H](CCCNC(=N)N)C(=O)N[C@@H](CS)C(=O)N[C@@H](CCCNC(=N)N)C(=O)O` [compound 9] (H-RGCKRDKDCPQFRGVNIRCR-OH; N-terminus and C-terminus assumed) as the compound, how does the “Percent growth rate inhibition L. crescens” value ([1]; 0.1 mg/ml) read?
Answer: 65.4%

Question: How did the “number” value (CLas; leaf delivery, FIG. 7) turn out when “QNLCVGSPLPLQCLKFICRC (listed as Medicago truncatula) [SEQ ID NO: 14]” was run?
Answer: reduces the number of infective Diaphorina citri adults

Question: What about the “Nymph mortality of D. citri” value (Diaphorina citri) of the same compound?
Answer: Nymph mortality observed

Question: Which results are given for “YSSCATKEECKCPDNKRPAC (listed as Medicago truncatula) [SEQ ID NO: 8]”?
Answer: adult insects with more than 100 CLas cell equivalents per insect (CLas; count out of adults collected, 21 days, FIG. 7): 2/84; number of infective Diaphorina citri adults that develop on treated leaves (CLas; leaf delivery, FIG. 7): reduces the number of infective Diaphorina citri adults; live adult psyllids collected from the ten leaves (Diaphorina citri): 84
